Results published in the NIST ThermoML archive (doi:10.1021/acs.jced.8b00229).

Conditions: Liquid, Vibrating tube method

FCC(F)(F)F [1,1,1,2-tetrafluoroethane]
Conditions	mass density [kg/m3]
283.55 K, 40000 kPa	1376.3
283.55 K, 60000 kPa	1413.1
283.55 K, 80000 kPa	1443.2
283.56 K, 20000 kPa	1328.7
283.57 K, 5000 kPa	1279.4
283.57 K, 10000 kPa	1297.9
303.39 K, 1000 kPa	1188.5
303.39 K, 5000 kPa	1212.5
303.39 K, 10000 kPa	1237
303.39 K, 20000 kPa	1275.9
303.39 K, 40000 kPa	1332.1
303.39 K, 80000 kPa	1407.4
303.4 K, 60000 kPa	1373.9
322.89 K, 3000 kPa	1120.9
322.91 K, 5000 kPa	1137.8
322.91 K, 10000 kPa	1172
322.93 K, 20000 kPa	1221.5
322.93 K, 40000 kPa	1288.4
322.93 K, 60000 kPa	1335.8
322.94 K, 80000 kPa	1372.8
342.75 K, 3000 kPa	1017.4
342.75 K, 5000 kPa	1047.5
342.76 K, 10000 kPa	1098.8
342.77 K, 20000 kPa	1164.1
342.77 K, 40000 kPa	1243.6
342.78 K, 60000 kPa	1297.3
342.78 K, 80000 kPa	1338.2
362.57 K, 5000 kPa	924.9
362.57 K, 10000 kPa	1015.4
362.58 K, 20000 kPa	1103.4
362.59 K, 40000 kPa	1198.4
362.59 K, 60000 kPa	1258.8
362.59 K, 80000 kPa	1303.8
